This is an account of results in patent publication US12611456B2, “Use of thiazole amide compounds for modulating human immune response” (Children's Medical Center Corporation, priority 2019, dated 2026).

In data set [1] the test system is NF-κB. Nature of the data set: THP1-NF-κB reporter cell line, luminescence. In kind it is cell-based, human. As to conditions: THP1-NF-κB cells, 100 to 0.02 μM. The text has this: (§1) The THP1-NF-κB Lucia, THP1-dual NF-κB/IRF parent cell line, knocked out for MyD88 (THP1-AMyD88), TBK1 (THP1-ΔTBK1), IRF3 (THP1-AIRF3), cGAS (THP1-AcGAS), STING (THP1-ASTING), or expressing murine STING were obtained from Invivogen (San Diego, CA). THP1-derived cell lines are human monocytic cells derived from the blood of a child with leukemia and contain NF-κB- and IRF-inducible reporter construct to allow colorimetric- or luminescence-based assessment of NF-κB and IRF activities. THP1 cells were cultured in RPMI 1640 supplemented with 10% non-heat inactivated fetal bovine serum (FBS), 10 mM HEPES, 1.0 mM sodium pyruvate, 50 ug/ml Pen-Strep, and 100 ug/mL Normocin™. Once cultured, the cells were stored in a 37° C. incubator with 5% CO2 and a humidified atmosphere. Cells were passaged every 2-3 days and not allowed to exceed a concentration of 2.0×10^6 cells/ml media.
THP1-NF-κB cells between passage 15 and 18 and suspended in culture medium were dispensed into 384-well black clear-bottom plates (Corning 3712) at 30,000 cells/30 μl/well using a Combi liquid dispenser. To allow comparison to a benchmark small molecule with known immune stimulating activity, cells at the same concentration were stimulated with 50 μM R848, a TLR7/8 agonist, in 0.3% DMSO and added to every other well of column 24, which was left empty of cells, by multichannel pipette at the same volume. Five μl of 700 nM Phorbol myristate acetate (PMA) in THP1 culture media and 2.3% DMSO, a known peripheral blood cell mitogen, was added to every other well of column 23 by multichannel pipette (final concentration in well: 100 nM in 0.3% DMSO). Five μl of THP1 culture media with 2.3% DMSO was added to the remaining wells of column 23 by multichannel pipette (final concentration 0.3% DMSO). One hundred nl aliquots of library compounds diluted in 100% DMSO were transferred from their original 384-well plates to the assay plates using a Seiko pin transfer machine. Each library plate was pinned in duplicate, yielding two assay plates with identical conditions for comparison. Plates were then incubated for 24 hours at 37 C with 5% CO2 in humid conditions. Following incubation, 10 μL of supernatant was removed from each well and transferred to a white plate (Corning 3570) using a Vprep liquid transfer machine. 10 μL of recombinant Lucia protein (Invivogen) diluted 1:2000 in THP1 culture media was added to empty well 24P. Using a Combi liquid dispenser, 50 μL/well of Quanti-Luc substrate (Invivogen) diluted 1:3 in sterile water was added to the assay plate. Immediately after adding the substrate, the luminescence was read using a PerkinElmer Envision plate reader. This assay was adapted to a 96 well format to confirm and expand the HTS results.

In data set [2] the test system is IRF. Nature of the data set: THP1-ISG reporter cell line, luminescence. Type of data set: cell-based, human. As to conditions: THP1-ISG cells, 100 to 0.02 μM. The text has this:
High throughput screen (HTS) overview: To identify small molecule immunomodulators/adjuvants that robustly activate human immune cells, ˜200,000 small molecules were screened and tested against THP1 cells. The chemical libraries screened included known bioactive and commercial libraries from various sources including commercial libraries such as ChemDiv, ChemBridge, and Asinex. All libraries were owned and provided by the Institute of Chemistry and Cell Biology (ICCB)—Longwood (Harvard Medical School). The project primary screen incorporated two distinct arms: a) a luciferase-based screen which corresponds to the relative activation of the human NFκB Reporter gene; and b) a fluorescence-based screen, corresponding to the phenotypic adherence, a distinct marker of cell activation, of the THP1 cells. In a secondary luciferase-based screen IRF-inducing activities of selected hits using a THP1-ISG reporter cell line were evaluated. Here, discovery of a thiazole amide small molecule family with both NFκB/IRF-inducing and leukocyte adherence-inducing activities towards human leukocytes was observed.
Briefly, THP1-dual NF-κB/IRF parent and derived cell lines were resuspended at a concentration of 10^5 cells/200 μl of THP1 culture medium and transferred to a 96-well plate pre-loaded with compounds dissolved in DMSO. In selected experiments, THP1 cells were also stimulated with TNF and IFNβ as controls for NF-κB and IRF activities, respectively. After 22-24 hours of incubation (37° C., 5% CO2), plates were spun down (500×g, room temperature, 5 minutes) and supernatants were harvested to assess NF-κB and IRF activities by measuring the levels of SEAP and Lucia luciferase with Quanti-Blue and Quanti-Luc, respectively.

Data set [3] concerns THP1-NF-κB cells. Put plainly: Annexin V staining for apoptotic cells. In kind it is cell-based, human. As to conditions: 33 μM. The protocol: (§2) Following incubation and supernatant transfer described above, each black assay plate was manually washed. First, remaining suspension cells were expelled into a bath of 15% bleach by shaking the plate upside down. The plate was then submerged in a 7 L bath of 1×PBS. Once submerged, each plate was shaken vigorously side-to-side to release any air bubbles forming in the wells. The plate was then removed and shaken into the bleach bath once again. This process was repeated 3 times per plate. 30 μL/well of a mix of 2 μg/mL Hoechst 33342 in PBS with 1% Para-formaldehyde was added using a Combi liquid dispenser to the washed assay plates. Plates were left in the dark to stain and fix for 20 minutes. Washed and stained assay plates were then loaded onto an Acumen laser scanning cytometer. Total fluorescence area and number of objects (nuclei) were measured using the instrument for each well. This assay was adapted to a 96 well format to confirm and expand the HTS results. […] After 24 hours of incubation (37° C., 5% CO2), plates were washed with PBS to determine the number of adherent cells Alternatively, plates were spun down (500×g, room temperature, 5 minutes) and cells were harvested for staining with fluorescent Annexin V or antibodies against co-stimulatory markers CD80 and CD86 (Biolegend) according to the manufacturer's protocols and analyzed by flow cytometry (BD LSRFortessa).

In data set [4] the test system is THP1-NF-κB cells. Put plainly: THP1 cell adherence assay. Type of data set: cell-based, human. As to conditions: 33 μM, PMA and R848 positive controls. The method, then: as §2
For data set [5], the system named is MyD88. Put plainly: NF-κB and IRF activities in THP1 cells knocked out for MyD88, TBK1 or IRF3. Type of data set: cell-based, human. As to conditions: 25 μM, 22-24 hr, knockout vs parent THP1 cells.
From the text: as §1
(§3) Briefly, THP1-dual NF-κB/IRF parent and derived cell lines were resuspended at a concentration of 10^5 cells/200 μl of THP1 culture medium and transferred to a 96-well plate pre-loaded with compounds dissolved in DMSO. In selected experiments, THP1 cells were also stimulated with TNF and IFNβ as controls for NF-κB and IRF activities, respectively. […]

For data set [6], the system named is THP1-NF-κB cells. Nature of the data set: Expression of co-stimulatory molecules CD80 and CD86 by flow cytometry. Type of data set: cell-based, human. As to conditions: 33 μM. The method, then: as §2
The subject of data set [7] is C57BL/6 mice. Put plainly: Influenza rHA immunization of mice, anti-rHA IgG by ELISA. As to conditions: rHA + compound vs rHA alone; for adjuvant activity: anti-rHA IgG titers: prime Day 0, boost Day 28, serum Day 28 and Day 42, i.m., 100 nmol. For orientation: In an ELISA, binding on a coated surface is turned into a signal by an enzyme label.
Protocol: C57BL/6 mice were obtained from Charles River Laboratories and housed in specific pathogen-free conditions in the animal research facilities at Boston Children's Hospital.
For immunization experiments, adult mice were immunized intramuscularly (i.m.) in the right posterior thigh with 50 μl of vaccine containing 0.33 μg of each of the following recombinant influenza virus hemagglutinins (rHA): A/Michigan/45/2015 (H1N1), A/Hong Kong/4801/2014 (H3N2), and B/Brisbane/60/2008, contained in the 2016-2017 formulation of the FluBlok vaccine (Protein Sciences Corp.). Mice were immunized with a prime-boost schedule (two injections four weeks apart). Vaccine in all experimental groups was formulated with 10% (v/v) DMSO and 5% (v/v) Tween-80. As indicated for specific experimental groups, vaccine was also formulated with compound 057 (100 nmol, final DMSO concentration 10%). Serum was collected 28 days post-prime (pre-boost blood sample) and 14 days post-boost for antibody detection. rHA-specific IgG were quantified by ELISA. High binding flat bottom 96-well plates (Corning Life Sciences) were coated with 1 μg/ml rHA in carbonate buffer pH 9.6, incubated overnight at 4° C. and blocked with PBS+BSA 1% (Sigma-Aldrich) for 1 h at room temperature (RT). Then, sera from vaccinated mice were added with an initial dilution of 1:100 and 1:4 serial dilutions in PBS+BSA 1% and incubated for 2 hrs at RT. Plates were then washed and incubated for 1 hr at RT with HRP-conjugated anti-mouse IgG (Southern Biotech). At the end of the incubation plates were washed again and developed with tetramethylbenzidine (BD Biosciences) for 5 minutes, then stopped with 1 N H2SO4. The optical density was read at 450 nm Versamax microplate reader with SoftMax Pro Version 5 (both from Molecular Devices) and endpoint titers were calculated using as cutoff three times the optical density of the background.
For data set [8], the system named is STING. Put plainly: NF-κB and IRF activities in THP1 cells knocked out for cGAS or STING. Type of data set: cell-based, human. As to conditions: 25 μM, 22-24 hr, knockout vs parent THP1 cells.
From the text: as §1, §3

The target of data set [9] is T1, murine STING (Mus musculus, UniProt Q3TBT3).
T1 construct: host or cells: THP1-dual NF-κB/IRF reporter cells (human monocytic line) expressing murine STING
T1 sequence (Q3TBT3 1-378): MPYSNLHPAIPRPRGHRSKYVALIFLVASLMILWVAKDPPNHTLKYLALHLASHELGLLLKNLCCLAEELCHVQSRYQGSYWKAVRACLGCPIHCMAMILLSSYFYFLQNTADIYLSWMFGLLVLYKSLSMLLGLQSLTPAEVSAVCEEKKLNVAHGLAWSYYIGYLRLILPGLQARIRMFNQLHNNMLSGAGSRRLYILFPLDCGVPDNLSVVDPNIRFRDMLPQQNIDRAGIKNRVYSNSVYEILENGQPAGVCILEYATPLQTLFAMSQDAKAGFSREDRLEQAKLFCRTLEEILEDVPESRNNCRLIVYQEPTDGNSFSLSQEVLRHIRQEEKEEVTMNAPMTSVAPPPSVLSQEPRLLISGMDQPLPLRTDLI
Nature of the data set: NF-κB and IRF activities in THP1-dual reporter cells expressing murine STING. In kind it is cell-based. As to conditions: 25 μM, 22-24 hr, fold over DMSO.
From the text: as §1, §3

Data set [10] has as its system NF-κB. Put plainly: NF-κB activity in THP1-dual NF-κB/IRF reporter cells. In kind it is cell-based, human. As to conditions: 22-24 hr, 100, 25, 6.25 and 1.56 μM, fold over DMSO.
From the text: as §1, §3

Data set [11] has as its system IRF. Put plainly: IRF activity in THP1-dual NF-κB/IRF reporter cells. In kind it is cell-based, human. As to conditions: 22-24 hr, 100, 25, 6.25 and 1.56 μM, fold over DMSO.
From the text: as §1, §3

Entries after “also recorded” stand apart in the source; their conditions may differ.

On to `COc1ccc(C(=O)Nc2nc(CC(=O)Nc3nc4ccc(S(C)(=O)=O)cc4s3)cs2)cc1` [Compound 57.2], for which the “NFκB-inducing activity (RLU)” value is recorded as “comparable to or greater than the parent molecule 057” in data set [1] and “concentration-dependent activity” in data set [1] (listed as 057.2). In addition, the entries for the “IRF-inducing activity (RLU)” value in [2] and in data set [2] (listed as 057.2) were “comparable to or greater than the parent molecule 057” and “concentration-dependent activity”, respectively.

On to `CCOc1ccc2nc(NC(=O)Cc3csc(NC(=O)c4cc(OC)cc(OC)c4)n3)sc2c1` [Compound 057], for which the “apoptosis (Annexin V+ cells)” value in data set [3] is “does not induce apoptosis; also recorded: without inducing cellular apoptosis”. Moreover, in [4], the “cell adherence (number of adherent cells)” value is reported as “induces cell adherence; also recorded: elicits human leukocyte adherence”. Moreover, the “dependence of NF-κB and IRF activities on MyD88” value in data set [5] is listed as “MyD88-independent”. Further, the “expression of co-stimulatory molecules CD80 and CD86 (MFI)” value in data set [6] is “induces the expression co-stimulatory molecules; also recorded: elicited the expression of surface co-stimulatory molecules; also recorded: elicits”. In addition, the “adjuvant activity: anti-rHA IgG titers” value is reported as “exerts adjuvant activity in vivo; also recorded: substantially higher antibody titers; also recorded: demonstrates in vivo adjuvanticity in mice” in [7] and “demonstrates in vivo adjuvanticity in mice” in [7] (listed as PVP-057). For the same molecule, the “adjuvant activity: rHA-specific IgG titers” value in data set [7] (single i.m. injection Day 0, serum Day 14) is “exerts adjuvant activity in vivo; also recorded: substantially higher antibody titers”. Also, the “dependence of NF-κB and IRF activities on STING” value in data set [8] is given as “STING-dependent”. Also, the “activation of murine STING (NF-κB and IRF activities)” value in [9] was “activates murine STING; also recorded: activated THP1 cells expressing murine STING”. Further, in data set [1], the “NFκB-inducing activity (RLU)” value was “concentration-dependent activity; also recorded: robustly induces both NFκB and IRF activities”. The “IRF-inducing activity (RLU)” value in [2] was “concentration-dependent activity; also recorded: robustly induces both NFκB and IRF activities”. Further, in [10], the NF-κB activity result is “dose-dependent response; also recorded: elicited both NFκB and IRF activities; also recorded: elicits”. The IRF activity entry in data set [11] was “dose-dependent response; also recorded: elicited both NFκB and IRF activities; also recorded: elicits”.

For the molecule `COc1ccc(C(=O)Nc2nc(CC(=O)Nc3nc4ccccc4s3)cs2)cc1OC` [Compound 57.3], the “NFκB-inducing activity (RLU)” value in data set [1] is “comparable to or greater than the parent molecule 057”; in [1] (listed as 057.3) it was “concentration-dependent activity”. Besides, the “IRF-inducing activity (RLU)” value was “comparable to or greater than the parent molecule 057” in data set [2] and “concentration-dependent activity” in data set [2] (listed as 057.3).
